Assays:
Test in all cases: Ba/F3 drug screening, Cell Titer Glo, IC50 Mut/WT
Format in all cases: cell-based
[1] = target: T1, EGFR L718V (Homo sapiens, UniProt P00533, L718V); details: PACC; L718V; Ba/F3; 72 hours
T1 construct: expressed in transfected cells; host or cells: Ba/F3

[2] = target: T2, EGFR G719A (Homo sapiens, UniProt P00533, G719A); details: PACC; G719A; Ba/F3; 72 hours
T2 construct: expressed in transfected cells; host or cells: Ba/F3
Protocol: (§1) Data represent the ratio of the IC50 value for a given TKI for cells with a PACC EGFR mutation to the IC50 value for cells with wildtype EGFR.
(§2) Ba/F3 cell generation, drug screening, and IC50 approximations. Ba/F3 cells were obtained as a gift from Dr. Gordon Mills (MD Anderson Cancer Center), and maintained in RPMI (Sigma) containing 10% FBS, 1% penicillin/streptomycin, and 10 ng/ml recombinant mIL-3 (R&D Biosystems). To establish stable Ba/F3 cell lines, Ba/F3 cells were transduced with retroviruses containing mutant EGFR plasmids for 12-24 hours.
(§3) After 48-72 hours of transduction, 2 μg/ml puromycin (Invitrogen) was added to Ba/F3 cell lines in complete RPMI. To select for EGFR positive cell lines, cells were stained with PE-EGFR (Biolegend) and sorted by FACS. After sorting, EGFR positive cells were maintained in RPMI containing 10% FBS, 1% penicillin/streptomycin, and 1 ng/ml EGF to support cell viability. Drug screening was performed as previously described^41,42. Shortly, cells were plated in 384-well plates (Greiner Bio-One) at 2000-3000 cells per well in technical triplicate. Seven different concentrations of TKIs or DMSO vehicle were added to reach a final volume of 40 μL per well. After 72 hours, 11 μL of Cell Titer Glo (Promega) was added to each well. Plates were incubated for a minimum of 10 minutes, and bioluminescence was determined using a FLUOstar OPTIMA plate reader (BMG LABTECH). Raw bioluminescence values were normalized to DMSO control treated cells, and values were plotted in GraphPad Prism. […] Drug screens were performed in technical triplicate on each plate and either duplicate or triplicate biological replicates.

[3] = target: T3, EGFR E709K (Homo sapiens, UniProt P00533, E709K); details: PACC; E709K; Ba/F3; 72 hours
T3 construct: expressed in transfected cells; host or cells: Ba/F3
Protocol: as §1, §2, §3

[4] = target: T4, EGFR G719S (Homo sapiens, UniProt P00533, G719S); details: PACC; G719S; Ba/F3; 72 hours
T4 construct: expressed in transfected cells; host or cells: Ba/F3

[5] = target: T5, EGFR G719A L861Q (Homo sapiens, UniProt P00533, G719A/L861Q); details: PACC; G719A L861Q; Ba/F3; 72 hours
T5 construct: expressed in transfected cells; host or cells: Ba/F3

[6] = target: T6, EGFR K754E (Homo sapiens, UniProt P00533, K754E); details: Classical-Like, 72 hours
T6 construct: expressed in transfected cells; host or cells: Ba/F3 cells, retroviral pBabe-Puro vector
Protocol: Data represent the ratio of the IC50 value for a given TKI for cells with a classical-like EGFR mutation to the IC50 value for cells with wildtype EGFR.
as §2
After 48-72 hours of transduction, 2 μg/ml puromycin (Invitrogen) was added to Ba/F3 cell lines in complete RPMI. To select for EGFR positive cell lines, cells were stained with PE-EGFR (Biolegend) and sorted by FACS. After sorting, EGFR positive cells were maintained in RPMI containing 10% FBS, 1% penicillin/streptomycin, and 1 ng/ml EGF to support cell viability. […] Shortly, cells were plated in 384-well plates (Greiner Bio-One) at 2000-3000 cells per well in technical triplicate. Seven different concentrations of TKIs or DMSO vehicle were added to reach a final volume of 40 μL per well. After 72 hours, 11 μL of Cell Titer Glo (Promega) was added to each well. Plates were incubated for a minimum of 10 minutes, and bioluminescence was determined using a FLUOstar OPTIMA plate reader (BMG LABTECH). Raw bioluminescence values were normalized to DMSO control treated cells, and values were plotted in GraphPad Prism. […] Drug screens were performed in technical triplicate on each plate and either duplicate or triplicate biological replicates.

[7] = target: T7, EGFR K757R (Homo sapiens, UniProt P00533, K757R); details: PACC; K757R; Ba/F3; 72 hours
T7 construct: expressed in transfected cells; host or cells: Ba/F3

[8] = target: T8, EGFR L833V (Homo sapiens, UniProt P00533, L833V); details: Classical-Like, 72 hours
T8 construct: expressed in transfected cells; host or cells: Ba/F3 cells, retroviral pBabe-Puro vector

[9] = target: T9, EGFR G724S T790M (Homo sapiens, UniProt P00533, G724S/T790M); details: T790M-like-3R, 72 hours
T9 construct: expressed in transfected cells; host or cells: Ba/F3

[10] = target: T10, EGFR S768dupSVD V769M (Homo sapiens, UniProt P00533, INS768MDS/V769M); details: Ex20, 72 hours
T10 construct: expressed in transfected cells; host or cells: Ba/F3 cells, retroviral pBabe-Puro vector (vector made by GeneScript from EGFR S768dupSVD, c.2305G > A)

[11] = target: T11, EGFR E709_T710del insD (Homo sapiens, UniProt P00533, DEL709-709/T710D); details: PACC; E709_T710del insD; Ba/F3; 72 hours
T11 construct: expressed in transfected cells; host or cells: Ba/F3
Protocol: as §1, §2, §3

[12] = target: T12, EGFR D761N (Homo sapiens, UniProt P00533, D761N); details: Classical-Like, 72 hours
T12 construct: expressed in transfected cells; host or cells: Ba/F3 cells, retroviral pBabe-Puro vector

[13] = target: T13, EGFR L858R T790M V843I (Homo sapiens, UniProt P00533, L858R/T790M/V843I); details: T790M-like-3S, 72 hours
T13 construct: expressed in transfected cells; host or cells: Ba/F3

[14] = target: T14, EGFR Ex19del (Homo sapiens, UniProt P00533, DEL746-750); details: Classical-Like, 72 hours
T14 construct: expressed in transfected cells; host or cells: Ba/F3 cells, retroviral pBabe-Puro vector

[15] = target: T15, EGFR A763insLQEA (Homo sapiens, UniProt P00533, INS763LQEA); details: Classical-Like, 72 hours
T15 construct: expressed in transfected cells; host or cells: Ba/F3 cells, retroviral pBabe-Puro vector

[16] = target: T16, EGFR L858R G724S (Homo sapiens, UniProt P00533, G724S/L858R); details: PACC; L858R G724S; Ba/F3; 72 hours
T16 construct: expressed in transfected cells; host or cells: Ba/F3 (retroviral transduction, pBabe-Puro based vectors)

[17] = target: T17, EGFR L858R/C797S (Homo sapiens, UniProt P00533, C797S/L858R); details: PACC; L858R/C797S; Ba/F3; 72 hours
T17 construct: expressed in transfected cells; host or cells: Ba/F3
Protocol: as §1, §2, §3

[18] = target: T18, EGFR L858R T790M L718V (Homo sapiens, UniProt P00533, L718V/L858R/T790M); details: T790M-like-3R, 72 hours
T18 construct: expressed in transfected cells; host or cells: Ba/F3
Protocol: Data represent the ratio of the IC50 value for a given TKI for cells with a T790M-like-3R EGFR mutation to the IC50 value for cells with wildtype EGFR.
as §2
After 48-72 hours of transduction, 2 μg/ml puromycin (Invitrogen) was added to Ba/F3 cell lines in complete RPMI. To select for EGFR positive cell lines, cells were stained with PE-EGFR (Biolegend) and sorted by FACS. After sorting, EGFR positive cells were maintained in RPMI containing 10% FBS, 1% penicillin/streptomycin, and 1 ng/ml EGF to support cell viability. […] Shortly, cells were plated in 384-well plates (Greiner Bio-One) at 2000-3000 cells per well in technical triplicate. Seven different concentrations of TKIs or DMSO vehicle were added to reach a final volume of 40 μL per well. After 72 hours, 11 μL of Cell Titer Glo (Promega) was added to each well. Plates were incubated for a minimum of 10 minutes, and bioluminescence was determined using a FLUOstar OPTIMA plate reader (BMG LABTECH). Raw bioluminescence values were normalized to DMSO control treated cells, and values were plotted in GraphPad Prism. […] Drug screens were performed in technical triplicate on each plate and either duplicate or triplicate biological replicates. […] Statistical differences between groups were determined by ANOVA as described in the figure legends.

[19] = target: T19, EGFR L858R/L792H (Homo sapiens, UniProt P00533, L792H/L858R); details: PACC; L858R/L792H; Ba/F3; 72 hours
T19 construct: expressed in transfected cells; host or cells: Ba/F3

[20] = target: T20, EGFR E709K G719S (Homo sapiens, UniProt P00533, E709K/G719S); details: PACC; E709K G719S; Ba/F3; 72 hours
T20 construct: expressed in transfected cells; host or cells: Ba/F3

[21] = target: T21, EGFR Ex19del/L792H (Homo sapiens, UniProt P00533, DEL746-750/L792H); details: PACC; Ex19del/L792H; Ba/F3; 72 hours
T21 construct: expressed in transfected cells; host or cells: Ba/F3

[22] = target: T22, EGFR G719A/R776C (Homo sapiens, UniProt P00533, G719A/R776C); details: PACC; G719A/R776C; Ba/F3; 72 hours
T22 construct: expressed in transfected cells; host or cells: Ba/F3

[23] = target: T23, EGFR L718Q (Homo sapiens, UniProt P00533, L718Q); details: PACC; L718Q; Ba/F3; 72 hours
T23 construct: expressed in transfected cells; host or cells: Ba/F3
Protocol: as §1, §2, §3

ratio of IC50 for cells with mutant EGFR to IC50 for cells with wildtype EGFR (Mut/WT) [1]: 0.1103
ratio of IC50 for cells with mutant EGFR to IC50 for cells with wildtype EGFR (Mut/WT) [2]: 0.001888
ratio of IC50 for cells with mutant EGFR to IC50 for cells with wildtype EGFR (Mut/WT) [3]: 0.2711
ratio of IC50 for cells with mutant EGFR to IC50 for cells with wildtype EGFR (Mut/WT) [4]: 0.002178
ratio of IC50 for cells with mutant EGFR to IC50 for cells with wildtype EGFR (Mut/WT) [5]: 0.002249
ratio of IC50 for cells with mutant EGFR to IC50 for cells with wildtype EGFR (Mut/WT) [6]: 0.03231
ratio of IC50 for cells with mutant EGFR to IC50 for cells with wildtype EGFR (Mut/WT) [7]: 0.04087
ratio of IC50 for cells with mutant EGFR to IC50 for cells with wildtype EGFR (Mut/WT) [8]: 0.06272
ratio of IC50 for cells with mutant EGFR to IC50 for cells with wildtype EGFR (Mut/WT) [9]: 12.05
ratio of IC50 for cells with mutant EGFR to IC50 for cells with wildtype EGFR (Mut/WT) [10]: 3.097
ratio of IC50 for cells with mutant EGFR to IC50 for cells with wildtype EGFR (Mut/WT) [11]: 0.08391
ratio of IC50 for cells with mutant EGFR to IC50 for cells with wildtype EGFR (Mut/WT) [12]: 0.0008794
ratio of IC50 for cells with mutant EGFR to IC50 for cells with wildtype EGFR (Mut/WT) [13]: 20.06
ratio of IC50 for cells with mutant EGFR to IC50 for cells with wildtype EGFR (Mut/WT) [14]: 0.005832
ratio of IC50 for cells with mutant EGFR to IC50 for cells with wildtype EGFR (Mut/WT) [15]: 0.001484
ratio of IC50 for cells with mutant EGFR to IC50 for cells with wildtype EGFR (Mut/WT) [16]: 0.0005712
ratio of IC50 for cells with mutant EGFR to IC50 for cells with wildtype EGFR (Mut/WT) [17]: 0.04539
ratio of IC50 for cells with mutant EGFR to IC50 for cells with wildtype EGFR (Mut/WT) [18]: 20.65
ratio of IC50 for cells with mutant EGFR to IC50 for cells with wildtype EGFR (Mut/WT) [19]: 0.002838
ratio of IC50 for cells with mutant EGFR to IC50 for cells with wildtype EGFR (Mut/WT) [20]: 0.001358
ratio of IC50 for cells with mutant EGFR to IC50 for cells with wildtype EGFR (Mut/WT) [21]: 0.2436
ratio of IC50 for cells with mutant EGFR to IC50 for cells with wildtype EGFR (Mut/WT) [22]: 0.002518
ratio of IC50 for cells with mutant EGFR to IC50 for cells with wildtype EGFR (Mut/WT) [23]: 0.3828
Structure (SMILES): COc1cc2ncnc(Nc3ccc(F)c(Cl)c3)c2cc1NC(=O)/C=C/CN1CCCCC1 [Dacomitinib]
